The target in one test is T1, mu opioid receptor (Cavia porcellus, UniProt A0ACM8Q262).
T1 construct: full-length wild-type receptor
In words: mu opioid receptor binding: tritiated DAGO in guinea pig brain homogenates. The following applies: read-out: Opoid Binding Mu Ki; guinea pig brain homogenate, [3H]DAGO, 150 minutes, 0° C.

Test [1] is described as follows: standard rat paw pressure analgesia test. Type of test: in vivo. The following applies: i.v. From the text: The ED50 doses for several representative compounds of this invention in the standard rat paw pressure analgesia test are presented in Table 1.

Molecules are shown by their SMILES.

T1 sequence (A0ACM8Q262 1-400): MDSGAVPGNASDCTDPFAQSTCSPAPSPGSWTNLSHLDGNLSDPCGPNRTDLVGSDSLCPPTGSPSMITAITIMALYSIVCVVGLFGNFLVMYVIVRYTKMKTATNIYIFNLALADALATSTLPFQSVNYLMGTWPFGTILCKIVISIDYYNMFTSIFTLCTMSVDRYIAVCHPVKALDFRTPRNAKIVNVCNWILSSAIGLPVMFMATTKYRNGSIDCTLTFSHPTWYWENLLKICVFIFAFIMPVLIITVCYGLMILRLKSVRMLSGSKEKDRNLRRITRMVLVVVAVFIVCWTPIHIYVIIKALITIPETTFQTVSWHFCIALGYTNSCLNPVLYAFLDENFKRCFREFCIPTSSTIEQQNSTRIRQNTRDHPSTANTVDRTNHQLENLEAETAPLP

The term Ki denotes the dissociation constant of the complex between target and ligand, obtained from inhibition or displacement. Consider `CO[C@H]1C[C@@H](N2CCCC2)[C@H](N(C)C(=O)COc2cc(C)c(Cl)c(C)c2)C[C@H]1OC` (relative stereo) [Compound 3], for which, at mu opioid receptor, the Ki amounted to 720 nM. The “Rat Paw Pressure MPE50” value in test [1] is above 10 mg·kg.
For the compound `CO[C@H]1C[C@@H](N2CCCC2)[C@H](N(C)C(=O)COc2ccc(Cl)c(Cl)c2)C[C@H]1OC` (relative stereo) [Compound 4], the inhibitory constant (Ki) on mu opioid receptor is 1100 nM. In test [1], the “Rat Paw Pressure MPE50” value was above 10 mg·kg.
Take `CO[C@H]1C[C@@H](N2CCCC2)[C@H](N(C)C(=O)Cc2cccc3ccccc23)C[C@H]1OC` (relative stereo) [Compound 5]: the “Rat Paw Pressure MPE50” value in test [1] turned out to be 1.7 mg·kg.
As for `CO[C@H]1C[C@@H](N2CCCC2)[C@H](N(C)C(=O)Cc2ccc(Cl)c(Cl)c2)C[C@H]1OC` (relative stereo) [Compound 6], the “Rat Paw Pressure MPE50” value in test [1] came out at 5.2 mg·kg.
For the compound `CO[C@H]1C[C@@H](N2CCCC2)[C@H](N(C)C(=O)CC2c3ccccc3-c3ccccc32)C[C@H]1OC` (relative stereo) [Compound 7], the Ki on mu opioid receptor worked out at 273 nM.
On to `CO[C@H]1C[C@@H](N2CCCC2)[C@H](N(C)C(=O)COc2cc(C)c(Cl)c(C)c2Cl)C[C@H]1OC` (relative stereo) [Compound 8], for which, at mu opioid receptor, the Ki came out at 700 nM.
Regarding `CO[C@H]1C[C@@H](N2CCCC2)[C@H](N(C)C(=O)COc2cccc(F)c2)C[C@H]1OC` (relative stereo) [Compound 9, N-[4,5-Dimethoxy-2-(1-pyrrolidinyl)cyclohexyl]-2-(3-fluorophenoxy)-N-methylacetamide], at mu opioid receptor, the Ki worked out at 1100 nM.

The record behind these values is patent publication US4855316A (priority 1988, dated 1989).
